{"source": "patent US20250092353A1", "about": "“COMMENSAL FUNGUS AND USES THEREOF” (YEDA RESEARCH AND DEVELOPMENT CO. LTD., priority 2022, published 2025)", "key": {"C. albicans": {"tested_on": "C. albicans", "assay": "In vitro co-culture assay of C. albicans and K. weizmannii", "assay_type": "cell-based, Candida albicans", "settings": "in vitro coculture, flow cytometry", "protocol": "FIGS. 2A-2F include micrographs, graphs, a plot, and a curve showing in vitro culture characteristics of K. weizmannii. (2A) Representative images of C. albicans and K. weizmannii in liquid media in presence of filament-inducing conditions, n=3 independent experiments. (2B) A graph showing largest differences in growth between K. weizmannii and C. albicans with different carbon sources, based on a z-score > or <2. Differences were calculated using the normalized area under the curve (AUC) of K. weizmannii and C. albicans. Normalization of the AUC are based on the growth of both species with glucose. Size of data points corresponds to the normalized AUC of K. weizmannii with the corresponding carbon source. All measurements were done using the Biolog Phenotype MicroArrays in biological triplicates. […] The data points are color-coded according to the different types of carbon sources. (2C) A graph showing the largest differences in growth between K. weizmannii and C. albicans with different nitrogen sources, based on a z-score greater than or less than 2. Differences were calculated using AUC of K. weizmannii and C. albicans and normalized based on the growth of both species with glutamine. […] GFP expressing C. albicans was detected by flowcytometry to discriminate between fungi, n=2 independent experiments."}, "[1]": {"tested_on": "C. albicans SC5314 (ENO1-GFP)", "assay": "In vivo competition with C. albicans in Abx-treated SPF mice (co-inoculation, cohousing)", "source_text": "FIGS. 3A-3M include fluorescent micrographs, graphs, and a scheme, showing K. weizmannii competition with C. albicans in colonized animals. (3A) A representative picture of a far-red fluorescent reporter Kazachstania strain (K. weizmannii ENO1-Mirf). (3B-C) Recoverable fecal K. weizmannii in colonized wild-type animals (without antibiotics) one and six months after single oral K. weizmannii ENO1-Mirf inoculation. (3D) Flow cytometric analysis of C. albicans SC5314 (ENO1-GFP), K. weizmannii (ENO1-Mirf), and mixed cultures used for oral inoculation (3E). […] Quantification (n=3-5 mice per group, 4 independent experiments) (see (3D). (3H) Schematic non-limiting outline of a co-housing experiment. (3I) Representative flow cytometric feces analysis of colonized mice 4 weeks after initial colonization (before cohousing) and 2 weeks after co-housing. (N=4 per group). (3J) Percentages of respective labelled fungi in feces of C. albicans, K. weizmannii colonized animals, before and after co-housing in Abx presence (except for day 48 and 58); antibiotics withdrawal on day 46 of cohousing, n=4 per group, representative of 2 independent experiments. (3K) Flow cytometric analysis of feces of germfree animals 1 week after oral inoculation of single fungi cultures or mixed C. albicans SC5314 (ENO1-GFP)/K. weizmannii (ENO1-Mirf) culture. […]"}, "C2BBe1 cells": {"tested_on": "C2BBe1 cells", "assay": "Epithelial cell co-culture cytotoxicity (LDH assay)", "assay_type": "cell-based", "protocol": "Quantification of cytotoxicity (LDH assay). Differentiated C2BBe1 cells in 96-well plates were infected for a defined time period with 10^4 C. albicans, S. cerevisiae and K. weizmannii. cells/well. After coincubation, epithelial damage was quantified by measuring LDH release using a cytotoxicity detection kit (Roche) according to the manufacturer's instructions."}}}
{"substance": "Kazachstania weizmannii [K. weizmannii]", "values": [{"measurement": "growth interference in co-culture with C. albicans", "setting": "C. albicans", "value": "grew together without interference"}, {"measurement": "C. albicans colonization after co-inoculation", "setting": "[1]; Abx-treated mice, 1:1 mixture of K. weizmannii and C. albicans", "value": "Candida colonization was prevented"}, {"measurement": "displacement of established commensal C. albicans", "setting": "[1]; mice stably colonized with C. albicans (on Abx) cohoused with K. weizmannii-harboring mice", "value": "progressive rapid ousting of C. albicans"}, {"measurement": "protection from C. albicans-induced EC damage", "setting": "C2BBe1 cells; co-infection with K. weizmannii and C. albicans", "value": "did not prevent EC damage"}, {"measurement": "EC damage / viability (LDH release)", "setting": "C2BBe1 cells; single fungus co-culture", "value": "did not affect EC viability"}]}
